{
  "source": "patent US20050208549A1",
  "about": "“Testing endosymbiont cellular organelles and compounds identifiable therewith” (priority 2000, published 2005)",
  "system": "Fibroblast cells",
  "test": "NASBA ratio of mitochondrial DNA to chromosomal DNA in cultured fibroblast cells",
  "assay_type": "cell-based",
  "conditions": "culture period of four weeks, antiviral drugs at 3 μM and 30 μM",
  "protocol": "In Table 1, the primers and probes used in the examples are summarized. Standard NASBA nucleic acid amplification reactions were performed in a 20 μl reaction volume and contained: 40 mM Tris-pH 8.5, 70 mM KCl, 12 mM MgCl2, 5 mM dithiothreitol, 1 mM dNTPs (each), 2 mM rNTPs (each), 0.2 μM primer (each), 0.05 μM molecular beacon, 375 mM sorbitol, 0.105 μg/μl bovine serum albumin, 6.4 units AMV RT, 32 units T7 RNA polymerase, 0.08 units RNAse H and input nucleic acid. The complete mixture, except the enzymes, sorbitol and/or bovine serum albumin was, prior to adding the enzyme mixture, heated to 65° C. for two minutes in order to denature any secondary structure in the RNA and to allow the primers to anneal. After cooling the mixture to 41° C., the enzymes were added. The amplification took place at 41° C. for 90 minutes in a fluorimeter (CytoFluor 2000) and the fluorescent signal was measured every minute (using the filter set 530/25 nm and 485/30 nm). […]\nTo achieve quantification, a dilution series of target sequences for a particular primer set was amplified and the time points at which the reactions became positive (the time to positivity, TTP) were plotted against the input amounts of nucleic acid. This way a calibration curve was created that could be used to read TTP values of reactions with unknown amounts of input and deduce the input amount. […]",
  "data": [
    {"smiles": "Cc1cn([C@H]2C[C@H](N=[N+]=[N-])[C@@H](CO)O2)c(=O)[nH]c1=O", "note": "[AZT]", "values": [
      {"measurement": "change in mitochondrial DNA to chromosomal DNA ratio", "result": "no measurable change"}
    ]}
  ]
}
